Values after ≈ are worked out from the molar mass of the structure shown. Like-named read-outs stand apart in the source and are kept apart here.
Experiments:
[1] = tested on: store-operated calcium entry (SOCE) in THP-1 cells; assay: SOCE inhibition, combinatory (isobolographic) analysis, THP-1 cells; format: cell-based, human; settings: Homo sapiens, THP-1, read-out: SOCE IC50
Description: Bar graphs shown in FIGS. 10A-10Z and 10BB display SOCE amplitudes calculated from area under the curve (AUC) of the SOCE signals and normalized to SOCE in the presence of gadolinium. Combinatory effects were assessed using an isobolographic analysis approach, where CBGA was paired with another cannabinoid using concentrations of CBGA corresponding to 50%, 40%, 30%, 20%, 10%, and 0% inhibition (as derived from the IC50 curves of FIGS. 9A-9P) and combined with concentrations of the paired cannabinoid, so that each combination would be expected to inhibit 50% of the Ca^2+ signal (e.g., the CBGA concentration causing 50% inhibition was tested alone without the other cannabinoid, the CBGA concentration expected to block 40% of the signal was combined with the concentration of the other cannabinoid expected to inhibit 10%, the CBGA concentration expected to block 30% of the signal was combined with the concentration of the other cannabinoid expected to inhibit 20%, and so on). Simple additivity of cannabinoid pairs would be expected to inhibit the Ca^2+ signal by 50%. All the data in these experiments represent an average of 3 independent runs and the values are graphed as mean values±SEM.

[2] = biological target: T1, TRPM7 (Homo sapiens, UniProt Q96QT4); assay: Whole-cell patch clamp of TRPM7 outward current in Jurkat cells; format: cell-based; design: endogenous in cells; host or cells: Jurkat; settings: 10 μM, +40 mV, removal of intracellular ATP
Description: (§1) Inward CRAC currents were induced at −120 mV (gray trace) and outward currents at +40 mV (black trace, where CRAC currents reverse and are essentially absent). At the +40 mV voltage potential, TRPM7 channels produce monovalent outward currents. Perfusion of 50 μM IP3 activates ICRAC at −120 mV as above and the removal of intracellular ATP slowly activates TRPM7 current at +40 mV. Application of 10 μM CBGA blocks both outward TRPM7 and inward CRAC currents (see FIG. 13, black and gray traces, respectively). Without being bound by theory, CBGA may also block TRPM7's kinase activity, similar to other TRPM7 blockers such as NS8593.
Target sequence in this assay (Q96QT4 whole entry, the tested form may be a part): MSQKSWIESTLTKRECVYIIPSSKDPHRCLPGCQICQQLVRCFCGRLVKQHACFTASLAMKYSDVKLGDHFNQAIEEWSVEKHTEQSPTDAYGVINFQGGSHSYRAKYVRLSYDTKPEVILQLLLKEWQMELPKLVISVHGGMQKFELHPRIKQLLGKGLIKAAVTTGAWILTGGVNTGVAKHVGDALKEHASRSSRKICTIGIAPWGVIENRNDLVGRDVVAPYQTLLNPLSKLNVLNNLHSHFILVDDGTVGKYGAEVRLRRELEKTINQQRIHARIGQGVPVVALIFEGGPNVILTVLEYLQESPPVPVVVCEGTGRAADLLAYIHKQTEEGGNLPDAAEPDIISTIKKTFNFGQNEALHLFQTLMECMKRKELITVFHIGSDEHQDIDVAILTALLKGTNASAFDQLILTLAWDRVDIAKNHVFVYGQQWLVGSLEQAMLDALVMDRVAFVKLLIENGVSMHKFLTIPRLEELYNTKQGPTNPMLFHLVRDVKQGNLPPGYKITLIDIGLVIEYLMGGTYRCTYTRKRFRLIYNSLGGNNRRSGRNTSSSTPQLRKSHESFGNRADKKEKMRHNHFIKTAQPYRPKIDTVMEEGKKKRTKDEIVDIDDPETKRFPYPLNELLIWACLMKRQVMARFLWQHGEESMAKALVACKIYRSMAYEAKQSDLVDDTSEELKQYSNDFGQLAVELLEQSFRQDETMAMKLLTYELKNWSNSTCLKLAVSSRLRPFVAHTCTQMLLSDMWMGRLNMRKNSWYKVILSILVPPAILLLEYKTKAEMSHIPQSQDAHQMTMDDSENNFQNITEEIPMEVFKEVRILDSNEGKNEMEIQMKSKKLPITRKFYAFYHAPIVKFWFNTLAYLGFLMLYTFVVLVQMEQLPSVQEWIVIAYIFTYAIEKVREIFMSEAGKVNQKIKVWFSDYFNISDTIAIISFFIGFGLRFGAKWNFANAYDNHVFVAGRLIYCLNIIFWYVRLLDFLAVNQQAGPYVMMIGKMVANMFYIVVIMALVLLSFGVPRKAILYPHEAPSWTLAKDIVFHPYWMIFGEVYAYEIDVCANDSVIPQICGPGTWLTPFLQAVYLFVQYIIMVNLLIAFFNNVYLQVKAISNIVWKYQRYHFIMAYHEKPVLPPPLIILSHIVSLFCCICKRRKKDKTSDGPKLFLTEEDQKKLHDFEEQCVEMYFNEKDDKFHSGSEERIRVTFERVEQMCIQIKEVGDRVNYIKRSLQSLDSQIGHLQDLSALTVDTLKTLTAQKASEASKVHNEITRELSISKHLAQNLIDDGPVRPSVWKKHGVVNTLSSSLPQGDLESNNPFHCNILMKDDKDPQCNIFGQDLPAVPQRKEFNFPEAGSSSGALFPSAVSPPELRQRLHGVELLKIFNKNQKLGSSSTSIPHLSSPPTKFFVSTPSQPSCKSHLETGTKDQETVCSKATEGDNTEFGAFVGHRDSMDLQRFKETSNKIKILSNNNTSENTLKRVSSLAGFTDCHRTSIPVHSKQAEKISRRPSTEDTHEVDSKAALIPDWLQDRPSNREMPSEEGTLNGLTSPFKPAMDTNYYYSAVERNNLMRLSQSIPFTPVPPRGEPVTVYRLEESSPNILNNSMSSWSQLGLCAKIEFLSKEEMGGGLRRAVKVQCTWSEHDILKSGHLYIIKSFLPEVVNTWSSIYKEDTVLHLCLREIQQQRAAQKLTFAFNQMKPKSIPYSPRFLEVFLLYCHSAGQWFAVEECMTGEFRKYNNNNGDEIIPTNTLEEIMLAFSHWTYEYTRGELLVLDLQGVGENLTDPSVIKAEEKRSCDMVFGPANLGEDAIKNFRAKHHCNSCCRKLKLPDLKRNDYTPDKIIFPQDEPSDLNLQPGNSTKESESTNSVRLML

[3] = tested on: store-operated calcium entry (SOCE) in Jurkat T cells; assay: SOCE inhibition, Fura-2 Ca2+ bioassay, thapsigargin-induced, Jurkat cells; format: cell-based, human; settings: Homo sapiens, Jurkat, Jurkat
[4] = biological target: T1, TRPM7; assay: Whole-cell patch clamp of TRPM7 over-expressed in HEK293 cells; format: cell-based; design: expressed in transfected cells; host or cells: HEK293; settings: HEK293 over-expressing TRPM7; 1, 3, 10 or 30 μM; +40 mV; 0 ATP, 0 Mg2+
Description: Activation of TRPM7 over-expressed in HEK293 cells by perfusing the cells with intracellular solution containing 0 ATP and 0 Mg^2+, resulting in fast and maximal activation of TRPM7 outward currents at +40 mV is shown in FIG. 14.
Data from dose-response curves for the inhibition of TRPM7 currents (dark gray symbols) obtained in experiments shown in FIG. 14 and SOCE-mediated increases in intracellular Ca^2+ (light gray symbols) are shown in FIG. 15.
Target sequence in this assay (Q96QT4 whole entry, species assumed, the tested form may be a part): as the sequence (Q96QT4 whole entry, the tested form may be a part) above

[5] = tested on: store-operated calcium entry (SOCE) in Luva human mast cells; assay: SOCE inhibition, Fura-2 Ca2+ bioassay, thapsigargin-induced, Luva cells; format: cell-based; settings: Homo sapiens, Mast cell, read-out: IC50 SOCE Luva
[6] = tested on: store-operated calcium entry (SOCE) in RBL-2H3 rat mast cells; assay: SOCE inhibition, Fura-2 Ca2+ bioassay, thapsigargin-induced, RBL-2H3 cells; format: cell-based; settings: Rattus norvegicus, RBL-2H3, read-out: IC50 SOCE RBL-2H3, Table 5; individual cannabinoids; RBL-2H3
[7] = tested on: store-operated calcium entry (SOCE) in U937 monocytes; assay: SOCE inhibition, Fura-2 Ca2+ bioassay, thapsigargin-induced, U937 cells; format: cell-based, human; settings: Homo sapiens, U-937, read-out: IC50 SOCE U937, Table 5; individual cannabinoids; U937
[8] = tested on: CRAC channels (ICRAC); assay: Whole-cell patch clamp of IP3-induced ICRAC in Jurkat cells; format: cell-based, human; settings: 10 μM, 50 μM IP3, −120 mV
Description: The ability of CBGA to inhibit store-operated calcium entry (SOCE) within cells was experimentally interrogated (see FIG. 12). Jurkat cells were perfused with 50 μM IP3 to induce store depletion and activation of CRAC channels (the resulting Ca^2+ inward current is known as ICRAC). ICRAC is a long-lasting inward current at −120 mV membrane potential (black trace) that can be blocked by 10 μM CBGA (gray trace).
as §1

[9] = tested on: store-operated calcium entry (SOCE) in HEK293 cells; assay: SOCE inhibition, Fura-2 Ca2+ bioassay, thapsigargin-induced, HEK293 cells; format: cell-based, human

In the case of `CCCCCc1cc(O)c(C/C=C(\C)CCC=C(C)C)c(O)c1C(=O)O` [CBGA, (E)-3-(3,7-dimethylocta-2,6-dien-1-yl)-2,4-dihydroxy-6-pentylbenzoic acid], the IC50 [1] is reported as roughly 2200 nM, the “Block of outward TRPM7 current” value [2] is reported as “blocks” and the IC50 ([3]; read-out: IC50 SOCE Jurkat, Table 5, individual cannabinoids) is reported as 0.53 µg/mL. The IC50 ([3]; read-out: IC50 inhibition of SOCE-mediated increases in intracellular Ca2+, FIG. 15, cell type not stated there) was roughly 2000 nM, the “Block of TRPM7 current” value [4] was “dose-dependent block” and the IC50 [5] was 2.21 µg/mL (≈ 6.13 µM). For the same compound, the IC50 [6] was 0.27 µg/mL (≈ 0.749 µM), the IC50 [7] was 2.23 µg/mL (≈ 6.19 µM) and the “Block of inward CRAC current (ICRAC)” value [8] was “completely blocks”. The IC50 ([9]; Homo sapiens, HEK293, read-out: IC50 SOCE HEK-293, Table 5, individual cannabinoids, HEK-293) was 5.72 µg/mL (≈ 15.9 µM) and the “Inhibitory effect in immune cells compared with non-immune HEK293 cells” value ([9]; Jurkat vs HEK293 screening, 10 μM) was “more potent”.

Source: patent publication US20230172899A1, “CANNABINOID COMPOSITIONS” (priority 2020, published 2023)
